Here are results for 35 compounds from ChEMBL document CHEMBL1136498, “Ureas of 5-aminopyrazole and 2-aminothiazole inhibit growth of gram-positive bacteria” (Bioorg Med Chem Lett, 2003).

In test [1] the test system is Staphylococcus aureus. As to the kind of experiment: Minimal inhibitory concentration for Staphylococcus aureus bacteria (ATCC 9604 SV) was determined by broth microdilution methodology. The test is classed as functional. A general note: In broth dilution the organism is exposed to a series of concentrations in liquid medium.
Test [2] deals with Staphylococcus aureus. Nature of the test: Concentration that inhibits 50% growth of methicillin resistant Staphylococcus aureus in the microdilution wells. The test is classed as functional, organism-based.
Test [3] relates to Mus musculus. As to the kind of experiment: In vivo efficacy versus methicillin resistant Staphylococcus aureus in mice administered sc at 20 mg/kg, expressed as percent survival. The test is classed as functional. As to conditions: route subcutaneous.
The subject of test [4] is Mus musculus. As to the kind of experiment: In vivo efficacy versus methicillin resistant Staphylococcus aureus in mice administered sc at 2mg/kg, expressed as percent survival. The test is classed as functional.
The test system of test [5] is Mus musculus. As to the kind of experiment: In vivo efficacy versus methicillin resistant Staphylococcus aureus in mice administered sc at 2x20mg/kg, expressed as percent survival. The test is classed as functional.
The test system of test [6] is Mus musculus. Nature of the test: In vivo efficacy versus methicillin resistant Staphylococcus aureus in mice administered sc at 2x2mg/kg, expressed as percent survival. The test is classed as functional.
The test system of test [7] is Staphylococcus aureus. Nature of the test: Concentration that inhibits 50% growth of methicillin resistant Staphylococcus aureus in the microdilution wells; IA=Inactive. The test is classed as functional, organism-based.
Test [8] concerns Staphylococcus aureus. Nature of the test: Minimal inhibitory concentration for Staphylococcus aureus bacteria (ATCC 9604 SV) was determined by broth microdilution methodology; IA=Inactive. The test is classed as functional, organism-based.

SMILES strings stand for the structures. Converted amounts (≈) assume the structure as drawn. The source made the active and inactive calls. No cut-off for these calls is given here. Bounds are passed on as bounds.

On to `O=C(Nc1cc(Cl)cc(Cl)c1)Nc1cc(-c2ccccc2)nn1-c1ccc(Cl)cc1`, for which, in the test on Staphylococcus aureus [1], the MIC is > 22.9 µg/mL. Besides, in the test with Staphylococcus aureus [2], half-maximal inhibition (IC50) required 148 nM. This compound registered a survival at 20 mg/kg in the test on Mus musculus [3] of 25%. The survival at 2 mg/kg in the test on Mus musculus [4] came out at 25%.
`CC(C)(C)c1csc(NC(=O)NCc2cccc(Cl)c2)n1`: the figures for the Survival in the test on Mus musculus [5] and in the test with Mus musculus [6] were 50% and 25%, respectively. The same compound returned an MIC in the test on Staphylococcus aureus [1] of 8.1 µg/mL (≈ 25 µM).
In turn, `O=C(Nc1cc(C(F)(F)F)cc(C(F)(F)F)c1)Nc1c(-c2ccccc2)cnn1-c1ccc(C(F)(F)F)cc1` registered an IC50 in the test with Staphylococcus aureus [2] of 330 nM. The compound also displayed a survival at 20 mg/kg in the test with Mus musculus [3] of 0%. Moreover, the survival at 2 mg/kg in the test with Mus musculus [4] was found to be 0%.
As for `O=C(Nc1cccc(Br)c1)Nc1nc(-c2ccc(Br)cc2)cs1`, the IC50 with Staphylococcus aureus [2] amounted to 543 nM.
In the test on Staphylococcus aureus [1], `O=C(Nc1cc(C(F)(F)F)cc(C(F)(F)F)c1)Nc1nc(CCc2ccccc2)cs1` registered an MIC of 23 µg/mL (≈ 50.1 µM). For the same compound, in the test with Staphylococcus aureus [2], the concentration for half-maximal inhibition (IC50) came out at 367 nM.
Compound `O=C(Nc1nc(-c2ccc(Cl)cc2)cs1)Nc1c(Cl)cc(Cl)cc1Cl` yielded an IC50 in the test with Staphylococcus aureus [2] of 927 nM.
As to `Cc1cc(NC(=O)Nc2cc(C(F)(F)F)cc(C(F)(F)F)c2)n(-c2ccc(Br)cc2)n1`, in the test with Staphylococcus aureus [1], the MIC is < 0.761 µg/mL. Besides, inhibition in the test with Staphylococcus aureus [2] was half-maximal at 268 nM (IC50).
With `O=C(Nc1cc(C(F)(F)F)cc(C(F)(F)F)c1)Nc1cc(CO)nn1-c1ccc(Br)cc1`, the Survival with Mus musculus [5] and with Mus musculus [6] was 33% in each case. Further, it took 6.54 µg/mL (≈ 12.5 µM) to inhibit growth against Staphylococcus aureus [1] (MIC). The same compound displayed an IC50 in the test on Staphylococcus aureus [2] of 4240 nM.
Take `COCCN(CCOC)Cc1cc(NC(=O)Nc2cc(C(F)(F)F)cc(C(F)(F)F)c2)n(-c2ccc(Br)cc2)n1`: the figures for the Survival with Mus musculus [5] and in the test with Mus musculus [6] were 33% and 0%, respectively. Further, 16 µg/mL (≈ 25.1 µM) was the least that counted as inhibitory with Staphylococcus aureus [1] (MIC). In the test on Staphylococcus aureus [2], 1560 nM corresponded to half-maximal inhibition (IC50). In the test on Mus musculus [3], the survival at 20 mg/kg was 25%. In addition, in the test on Mus musculus [4], the survival at 2 mg/kg worked out at 25%.
In the case of `COc1ccc(OC)c(-c2csc(NC(=O)Nc3cc(C(F)(F)F)cc(C(F)(F)F)c3)n2)c1`, in the test with Staphylococcus aureus [2], the IC50 is > 5000 nM.
As to `O=C(NCc1ccc(Cl)c(Cl)c1)Nc1nc(-c2ccc(Br)cc2)cs1`, 11.4 µg/mL (≈ 24.9 µM) was the least that counted as inhibitory against Staphylococcus aureus [1] (MIC).
`O=C(Nc1cc(Cl)cc(Cl)c1)Nc1cc(-c2cccs2)nn1-c1ccc(Br)cc1`: 0.847 µg/mL (≈ 1.67 µM) was the least that counted as inhibitory against Staphylococcus aureus [1] (MIC). For the same compound, the IC50 in the test on Staphylococcus aureus [2] was 71 nM. In addition, in the test on Mus musculus [3], the survival at 20 mg/kg was 25%. Also, the survival at 2 mg/kg in the test with Mus musculus [4] worked out at 0%.
As for `O=C(Nc1ccc(C(F)(F)F)cc1Cl)Nc1cc(-c2ccccc2)nn1-c1ccc(C(F)(F)F)cc1`, the IC50 entry in the test on Staphylococcus aureus [7] was “Not Active”. In addition, the MIC entry with Staphylococcus aureus [8] is “inactive”.
Consider `CN[C@H](CC(C)C)C(=O)N[C@H]1C(=O)N[C@@H](CC(N)=O)C(=O)N[C@H]2C(=O)N[C@H]3C(=O)N[C@H](C(=O)N[C@H](C(=O)O)c4cc(O)cc(O)c4-c4cc3ccc4O)[C@H](O)c3ccc(c(Cl)c3)Oc3cc2cc(c3O[C@@H]2O[C@H](CO)[C@@H](O)[C@H](O)[C@H]2O[C@H]2C[C@](C)(N)[C@H](O)[C@H](C)O2)Oc2ccc(cc2Cl)[C@H]1O` [VANCOMYCIN], for which the values for the Survival with Mus musculus [5] and in the test on Mus musculus [6] were 100% and 25%, respectively. In the test with Staphylococcus aureus [1], this compound gave an MIC of 0.75 µg/mL (≈ 0.518 µM). In addition, in the test with Staphylococcus aureus [2], half-maximal inhibition (IC50) was put at 839 nM.
In the case of `CCOC(=O)c1cnn(-c2ccc(Br)cc2)c1NC(=O)Nc1cc(C(F)(F)F)cc(C(F)(F)F)c1`, in the test with Staphylococcus aureus [1], the minimal inhibitory concentration (MIC) is < 0.848 µg/mL. In the test on Staphylococcus aureus [2], this compound yielded an IC50 of 261 nM.
For `O=C(Nc1ccc(Cl)c(C(F)(F)F)c1)Nc1cc(-c2ccccc2)nn1-c1ccc(C(F)(F)F)cc1` the same measures were < 0.787 µg/mL and 96 nM.
Consider `O=C(Nc1cc(C(F)(F)F)cc(C(F)(F)F)c1)Nc1cc(-c2ccncc2)nn1-c1ccc(C(F)(F)F)cc1`, for which the results for the Survival in the test on Mus musculus [5] and in the test with Mus musculus [6] were 17% and 0%, respectively. Further, the MIC with Staphylococcus aureus [1] was 1.68 µg/mL (≈ 3 µM). This compound also displayed an IC50 in the test with Staphylococcus aureus [2] of 214 nM. For the same compound, in the test with Mus musculus [3], the survival at 20 mg/kg worked out at 25%. Moreover, the survival at 2 mg/kg in the test on Mus musculus [4] was determined as 25%.
On to `Cc1cc(C)cc(NC(=O)Nc2cc(-c3ccccc3)nn2-c2ccc(C(F)(F)F)cc2)c1`, for which, in the test with Staphylococcus aureus [7], the IC50 entry is “Not Active”. Also, in the test with Staphylococcus aureus [8], the MIC result was “inactive”.
With `O=C(Nc1ccc(SC(F)(F)F)cc1)Nc1nc(-c2ccc(F)c(F)c2)cs1`, the MIC with Staphylococcus aureus [1] is < 0.647 µg/mL. In addition, in the test with Staphylococcus aureus [2], the concentration for half-maximal inhibition (IC50) was 134 nM.
Take `Cc1sc(NC(=O)Nc2cc(C(F)(F)F)cc(C(F)(F)F)c2)nc1-c1ccc(Br)cc1`: the concentration for half-maximal inhibition (IC50) in the test with Staphylococcus aureus [2] was found to be 838 nM.
Regarding `O=C(Nc1cc(C(F)(F)F)cc(C(F)(F)F)c1)Nc1nc(-c2cccs2)cs1`, in the test with Staphylococcus aureus [1], the MIC was 1.31 µg/mL (≈ 3 µM). Further, in the test on Staphylococcus aureus [2], inhibition was half-maximal at 259 nM (IC50).
Consider `O=C(Nc1nc(-c2ccc(Cl)cc2)cs1)Nc1ccc(Br)cc1C(F)(F)F`, for which half-maximal inhibition in the test on Staphylococcus aureus [2] (IC50) was put at 4710 nM.
Still for that read-out and setting: next, `O=C(Nc1cc(C(F)(F)F)cc(C(F)(F)F)c1)Nc1nc(CCCO)cs1`: 2070 nM; `COc1cc(NC(=O)Nc2nc(-c3ccc(Cl)cc3)cs2)cc(OC)c1`: > 5000 nM.
For `O=C(Nc1cc(C(F)(F)F)cc(C(F)(F)F)c1)Nc1cc(-c2ccccc2)nn1-c1ccc(C(F)(F)F)cc1`, in the test with Staphylococcus aureus [1], the MIC was < 0.838 µg/mL. In the test on Staphylococcus aureus [2], this compound came in with an IC50 of 54 nM. The compound further yielded a survival at 20 mg/kg with Mus musculus [3] of 0%. In the test on Mus musculus [4], this compound registered a survival at 2 mg/kg of 0%.
For the compound `Cc1cc(C)cc(NC(=O)Nc2nc(-c3ccc(Cl)cc3)cs2)c1`, the IC50 with Staphylococcus aureus [2] is > 5000 nM.
Turning to `O=C(Nc1ccc(F)c(C(F)(F)F)c1)Nc1nc(-c2ccc(F)c(F)c2)cs1`, the MIC in the test with Staphylococcus aureus [1] is < 0.626 µg/mL. Also, in the test with Staphylococcus aureus [2], the IC50 turned out to be 180 nM. The compound further had a survival at 20 mg/kg in the test on Mus musculus [3] of 0%. The compound further returned a survival at 2 mg/kg with Mus musculus [4] of 0%.
On to `O=C(Nc1cc(C(F)(F)F)cc(C(F)(F)F)c1)Nc1nc(-c2ccc(Br)cc2)cs1`, for which, in the test on Staphylococcus aureus [2], the 50% inhibitory concentration (IC50) turned out to be 133 nM.
Compound `O=C(Nc1cc(Cl)cc(Cl)c1)Nc1cc(-c2ccccc2)nn1-c1ccc(C(F)(F)F)cc1` returned an MIC against Staphylococcus aureus [1] of 12.3 µg/mL (≈ 25 µM). In addition, the IC50 in the test on Staphylococcus aureus [2] was 81 nM. Also, the survival at 20 mg/kg in the test on Mus musculus [3] was determined as 12.5%. Also, the survival at 2 mg/kg with Mus musculus [4] amounted to 0%.
On to `CCOC(=O)c1cc(NC(=O)Nc2cc(C(F)(F)F)cc(C(F)(F)F)c2)n(-c2ccc(Br)cc2)n1`, for which the Survival came out at 33% in the test with Mus musculus [5] and 0% with Mus musculus [6]. Moreover, in the test with Staphylococcus aureus [1], the MIC was > 14.1 µg/mL. The IC50 with Staphylococcus aureus [2] is 3100 nM.
`O=C(Nc1ccccc1-c1ccccc1)Nc1cc(-c2ccccc2)nn1-c1ccc(C(F)(F)F)cc1`: the IC50 result in the test on Staphylococcus aureus [7] is “Not Active”. In the test with Staphylococcus aureus [8], the MIC result is “inactive”.
For `CC(C)(C)c1cc(NC(=O)Nc2cc(Cl)cc(Cl)c2)n(-c2ccc(Br)cc2)n1`, in the test with Staphylococcus aureus [1], the MIC was < 0.723 µg/mL. Further, the IC50 with Staphylococcus aureus [2] was 132 nM. Further, the survival at 20 mg/kg in the test with Mus musculus [3] was determined as 0%. For the same compound, the survival at 2 mg/kg in the test with Mus musculus [4] is 0%.
For the compound `COc1ccc(-c2csc(NC(=O)Nc3cc(C(F)(F)F)cc(C(F)(F)F)c3)n2)c(OC)c1`, the IC50 in the test with Staphylococcus aureus [2] was > 5000 nM.
On to `Cc1ccccc1NC(=O)Nc1cc(-c2ccccc2)nn1-c1ccc(C(F)(F)F)cc1`, for which the IC50 result in the test with Staphylococcus aureus [7] was “Not Active”. In addition, the MIC result in the test with Staphylococcus aureus [8] was “inactive”.
With `O=C(NCc1cccc(Cl)c1)Nc1nc(C2CCCC2)cs1`, the Survival in the test with Mus musculus [5] and with Mus musculus [6] was 25% throughout. Further, inhibition of growth with Staphylococcus aureus [1] (MIC) required 8.4 µg/mL (≈ 25 µM).

What is called MIC is the least concentration at which growth counts as inhibited. By IC50 is commonly meant the concentration that inhibits the measured activity by half. Higher therefore signals lower potency.
